From US20250024871A1, “AMIDE COMPOUNDS AND THEIR USE AS FLAVOR MODIFIERS” (Firmenich Incorporated, priority 2021, published 2025)

Target: T1, T1R umami taste receptor (Homo sapiens, UniProt Q7RTX0+Q7RTX1)
T1 sequence (Q7RTX1 21-841): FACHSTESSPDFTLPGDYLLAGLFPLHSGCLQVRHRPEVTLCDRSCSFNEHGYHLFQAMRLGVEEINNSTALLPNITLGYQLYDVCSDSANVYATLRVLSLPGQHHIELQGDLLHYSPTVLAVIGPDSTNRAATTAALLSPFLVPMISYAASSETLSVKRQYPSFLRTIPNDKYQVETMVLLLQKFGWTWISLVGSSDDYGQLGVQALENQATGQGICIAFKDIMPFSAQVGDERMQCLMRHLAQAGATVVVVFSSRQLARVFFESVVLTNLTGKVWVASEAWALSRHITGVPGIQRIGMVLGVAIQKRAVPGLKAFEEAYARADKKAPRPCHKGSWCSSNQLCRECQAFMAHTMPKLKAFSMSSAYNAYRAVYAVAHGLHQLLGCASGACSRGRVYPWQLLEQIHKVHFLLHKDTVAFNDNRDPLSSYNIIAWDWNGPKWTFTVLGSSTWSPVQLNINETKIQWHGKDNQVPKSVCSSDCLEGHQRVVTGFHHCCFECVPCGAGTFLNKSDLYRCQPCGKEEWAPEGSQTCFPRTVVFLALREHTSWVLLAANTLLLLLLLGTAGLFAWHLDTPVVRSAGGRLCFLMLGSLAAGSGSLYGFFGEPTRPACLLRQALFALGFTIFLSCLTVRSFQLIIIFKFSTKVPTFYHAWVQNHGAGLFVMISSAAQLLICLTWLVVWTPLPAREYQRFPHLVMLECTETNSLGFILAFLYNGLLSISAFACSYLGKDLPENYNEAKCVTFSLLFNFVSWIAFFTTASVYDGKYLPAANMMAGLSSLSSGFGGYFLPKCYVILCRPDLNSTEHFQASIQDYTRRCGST
T1 sequence (Q7RTX0 21-852): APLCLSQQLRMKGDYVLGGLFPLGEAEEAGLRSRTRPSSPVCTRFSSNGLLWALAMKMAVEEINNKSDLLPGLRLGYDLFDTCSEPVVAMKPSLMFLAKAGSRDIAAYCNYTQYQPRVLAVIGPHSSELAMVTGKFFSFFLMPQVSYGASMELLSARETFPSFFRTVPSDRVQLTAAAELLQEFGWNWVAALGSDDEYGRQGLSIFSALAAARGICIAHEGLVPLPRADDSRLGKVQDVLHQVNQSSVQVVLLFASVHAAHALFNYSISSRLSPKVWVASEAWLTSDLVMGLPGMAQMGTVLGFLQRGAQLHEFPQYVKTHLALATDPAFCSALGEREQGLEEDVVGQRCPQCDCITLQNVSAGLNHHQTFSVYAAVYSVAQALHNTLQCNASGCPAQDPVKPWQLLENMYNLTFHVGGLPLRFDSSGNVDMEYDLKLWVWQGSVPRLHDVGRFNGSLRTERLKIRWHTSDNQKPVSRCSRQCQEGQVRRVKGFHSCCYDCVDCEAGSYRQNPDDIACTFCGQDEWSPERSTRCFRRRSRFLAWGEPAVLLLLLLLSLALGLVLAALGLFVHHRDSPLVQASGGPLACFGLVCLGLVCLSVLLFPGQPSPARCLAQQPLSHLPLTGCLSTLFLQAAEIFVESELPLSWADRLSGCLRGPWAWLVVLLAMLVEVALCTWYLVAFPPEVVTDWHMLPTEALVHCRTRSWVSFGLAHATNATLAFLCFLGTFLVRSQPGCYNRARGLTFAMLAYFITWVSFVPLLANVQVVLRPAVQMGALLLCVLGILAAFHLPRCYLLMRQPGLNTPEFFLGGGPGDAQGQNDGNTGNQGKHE
Test: in vitro cell-based assay having cells that express the T1R umami taste receptor (enhancement of MSG)
Conditions: for EC50: cells expressing T1R umami taste receptor, read-out: EC50 for enhancement of MSG binding
Experimental: Each of Compounds 101-183 was synthesized according to one of the general procedures set forth above in Examples 1. Thereafter, the compounds were tested in an in vitro cell-based assay having cells that express the T1R umami taste receptor. Dose-binding curves were recorded and the EC50 was determined for enhancement of MSG binding. Table 2 sets forth the calculated EC50 values for certain tested compounds as well as the MSG enhancement ratio at a particular concentration.

For `CCOC(=O)[C@H](CCSC)NC(=O)/C=C/C(C)C` [Compound 170, Ethyl (E)-(4-methylpent-2-enoyl)-L-methioninate], which “MSG Enh. Ratio” value (compound at 10 μM) is on record?
Its value is 3.5 @.

With `CCOC(=O)CC[C@H](NC(=O)/C=C/c1ccc2c(c1)OCO2)C(=O)OCC` [Compound 161, Diethyl (E)-(3-(benzo[d][1,3]dioxol-5-yl)acryloyl)-L-glutamate] as the compound, how does the EC50 read?
The EC50 was over 20 µM.

And the “MSG Enh. Ratio” value (compound at 10 μM)?
Its value is 2.9 @.

What does the source list for `CCOC(=O)[C@@H](NC(=O)/C=C/c1ccc2c(c1)OCO2)C(C)C` [Compound 159, Ethyl (E)-(3-(benzo[d][1,3]dioxol-5-yl)acryloyl)-L-valinate]?
EC50: > 50 µM; MSG Enh. Ratio (compound at 50 μM): 5.8 @

Which EC50 does the source give for `CCOc1ccc(C(=O)N[C@H](CC(C)C)C(=O)OC)cc1` [Compound 109, Methyl (4-ethoxybenzoyl)-D-leucinate] here?
The EC50 was 0.7 µM.

How did the “MSG Enh. Ratio” value (compound at 3 μM) turn out when `CCOC(=O)[C@H](CC(C)C)NC(=O)c1ccc(C)c(C)c1` [Compound 116, Ethyl (3,4-dimethylbenzoyl)-L-leucinate] was run?
The value was 3.7 @.

Which results are given for `COC(=O)[C@H](Cc1ccccc1)NC(=O)/C=C/c1ccccc1OC` [Compound 152, Methyl (E)-(3-(2-methoxyphenyl)acryloyl)-L-phenylalaninate]?
EC50: 27 µM; MSG Enh. Ratio (compound at 10 μM): 2.8 @

`COC(=O)[C@H](Cc1ccccc1)NC(=O)c1ccc(C)c(C)c1` [Compound 119, Methyl (3,4-dimethylbenzoyl)-L-phenylalaninate] was tested. Which EC50 did it give?
The EC50 was 8 µM.

And the “MSG Enh. Ratio” value (compound at 3 μM)?
The value was 4.6 @.

`CCOC(=O)[C@@H](CC(C)C)NC(=O)c1ccc(C)c(C)c1` [Compound 115, Ethyl (3,4-dimethylbenzoyl)-D-leucinate] was tested. Which EC50 did it give?
Its EC50 is 0.1 µM.

For `CCOC(=O)[C@@H](NC(=O)c1cccc(OC)c1)C(C)C` [Compound 108, Ethyl (3-methoxybenzoyl)-L-valinate], which EC50 is on record?
Its EC50 is over 50 µM.

What about the “MSG Enh. Ratio” value (compound at 50 μM) of the same compound?
Its value is 2.7 @.

How did the EC50 turn out when `CCOc1ccc(/C=C/C(=O)N[C@@H](Cc2ccccc2)C(=O)OC)cc1` [Compound 155, Methyl (E)-(3-(4-ethoxyphenyl)acryloyl)-L-phenylalaninate] was run?
Its EC50 is 1 µM.

And the “MSG Enh. Ratio” value (compound at 0.3 μM)?
Its value is 8.1 @.

Which EC50 does the source give for `CCOC(=O)[C@H](Cc1ccccc1)NC(=O)c1ccc(C)c(C)c1` [Compound 120, Ethyl (3,4-dimethylbenzoyl)-L-phenylalaninate] here?
Its EC50 is 12 µM.

What about the “MSG Enh. Ratio” value (compound at 10 μM) of the same compound?
Its value is 4.6 @.

Which “MSG Enh. Ratio” value (compound at 10 μM) does the source give for `CCOC(=O)[C@H](Cc1ccccc1)NC(=O)/C=C/C(C)C` [Compound 172, Ethyl (E)-(4-methylpent-2-enoyl)-L-phenylalaninate] here?
Its value is 3.6 @.

Which EC50 does the source give for `CCOC(=O)C[C@H](NC(=O)/C=C/c1ccccc1)C(=O)OCC` [Compound 138, Diethyl cinnamoyl-L-aspartate] here?
The EC50 was over 50 µM.

And the “MSG Enh. Ratio” value (compound at 50 μM)?
Its value is 2.0 @.

What does the source list for `CCOC(=O)CC[C@H](NC(=O)c1ccc(C(C)C)cc1)C(=O)OCC` [Compound 111, Diethyl (4-isopropylbenzoyl)-L-glutamate]?
EC50: 26 µM; MSG Enh. Ratio (compound at 50 μM): 4.4 @

`CC[C@H](C)[C@H](NC(=O)c1ccc(OC)c(OC)c1)C(=O)OC` [Compound 125, Methyl (3,4-dimethoxybenzoyl)-L-isoleucinate] was tested. Which EC50 did it give?
The EC50 was over 50 µM.

What about the “MSG Enh. Ratio” value (compound at 50 μM) of the same compound?
Its value is 2.7 @.

Which EC50 does the source give for `CCOC(=O)[C@H](NC(=O)/C=C/c1ccc(OC)cc1)C(C)C` [Compound 145, Ethyl (E)-(3-(4-methoxyphenyl)acryloyl)-D-valinate] here?
The EC50 was 1 µM.

Which results are given for `C/C=C/C=C/C(=O)N[C@@H](Cc1ccccc1)C(=O)OCC` [Compound 180, Ethyl ((2E,4E)-hexa-2,4-dienoyl)-L-phenylalaninate]?
EC50: > 50 µM; MSG Enh. Ratio (compound at 50 μM): 3.4 @

With `CCC/C=C/C(=O)N[C@H](C(=O)OCC)C(C)C` [Compound 175, Ethyl (E)-hex-2-enoyl-L-valinate] as the compound, how does the EC50 read?
The EC50 was over 50 µM.

What about the “MSG Enh. Ratio” value (compound at 50 μM) of the same compound?
The value was 4.4 @.

With `CCC/C=C/C(=O)N[C@@H](Cc1ccccc1)C(=O)OCC` [Compound 177, Ethyl (E)-hex-2-enoyl-L-phenylalaninate] as the compound, how does the EC50 read?
Its EC50 is about 40 µM.

And the “MSG Enh. Ratio” value (compound at 50 μM)?
Its value is 8.8 @.

With `COC(=O)CC[C@H](NC(=O)/C=C/c1ccccc1)C(=O)OC` [Compound 139, Dimethyl cinnamoyl-L-glutamate] as the compound, how does the “MSG Enh. Ratio” value (compound at 50 μM) read?
The value was 3.82 @.

`CCOC(=O)[C@@H](CC(C)C)NC(=O)c1ccc(C)cc1` [Compound 102, Ethyl (4-methylbenzoyl)-D-leucinate] was tested. Which EC50 did it give?
Its EC50 is under 2 µM.

For `COC(=O)[C@@H](CC(C)C)NC(=O)c1ccc(C)cc1` [Compound 101, Methyl (4-methylbenzoyl)-D-leucinate], which EC50 is on record?
Its EC50 is under 2 µM.

How did the “MSG Enh. Ratio” value (compound at 50 μM) turn out when `CCC/C=C/C(=O)N[C@@H](Cc1ccccc1)C(=O)OC` [Compound 176, Methyl (E)-hex-2-enoyl-L-phenylalaninate] was run?
Its value is 8.4 @.

`CCOC(=O)[C@@H](NC(=O)/C=C/c1ccccc1)C(C)C` [Compound 136, Ethyl cinnamoyl-L-valinate] was tested. Which EC50 did it give?
Its EC50 is 23 µM.

What about the “MSG Enh. Ratio” value (compound at 10 μM) of the same compound?
The value was 5.4 @.

With `CCC/C=C/C(=O)N[C@@H](CCC(=O)OCC)C(=O)OCC` [Compound 178, Diethyl (E)-hex-2-enoyl-L-glutamate] as the compound, how does the EC50 read?
The EC50 was over 50 µM.

What about the “MSG Enh. Ratio” value (compound at 50 μM) of the same compound?
The value was 5.6 @.

How did the EC50 turn out when `COC(=O)[C@@H](CC(C)C)NC(=O)c1ccc(C)c(C)c1` [Compound 114, Methyl (3,4-dimethylbenzoyl)-D-leucinate] was run?
Its EC50 is 0.7 µM.

Which results are given for `COC(=O)[C@H](CC(C)C)NC(=O)c1ccc(C)cc1` [Compound 103, Methyl (4-methylbenzoyl)-L-leucinate]?
EC50: > 50 µM; MSG Enh. Ratio (compound at 50 μM): 3.4 @

Which “MSG Enh. Ratio” value (compound at 50 μM) does the source give for `CCOC(=O)CC[C@H](NC(=O)c1ccc(C)c(C)n1)C(=O)OCC` [Compound 131, Diethyl (5,6-dimethylpicolinoyl)-L-glutamate] here?
Its value is 5.6 @.

`CCOC(=O)[C@H](CC(C)C)NC(=O)/C=C/C(C)C` [Compound 169, Ethyl (E)-(4-methylpent-2-enoyl)-L-leucinate] was tested. Which EC50 did it give?
The EC50 was 12.9 µM.

And the “MSG Enh. Ratio” value (compound at 3 μM)?
The value was 4.2 @.

What does the source list for `CCOC(=O)[C@H](Cc1ccccc1)NC(=O)/C=C/c1ccc(OC)cc1` [Compound 148, Ethyl (E)-(3-(4-methoxyphenyl)acryloyl)-L-phenylalaninate]?
EC50: 10.1 µM; MSG Enh. Ratio (compound at 1 μM): 3.5 @

For `COC(=O)[C@H](Cc1ccccc1)NC(=O)c1cccc(OC)c1` [Compound 107, Methyl (3-methoxybenzoyl)-L-phenylalaninate], which EC50 is on record?
Its EC50 is over 50 µM.

And the “MSG Enh. Ratio” value (compound at 50 μM)?
The value was 3.2 @.

Which results are given for `COC(=O)[C@H](Cc1ccccc1)NC(=O)/C=C/c1ccc(OC)cc1` [Compound 146, Methyl (E)-(3-(4-methoxyphenyl)acryloyl)-L-phenylalaninate]?
EC50: 1 µM; MSG Enh. Ratio (compound at 0.3 μM): 6.4 @

What does the source list for `COC(=O)[C@@H](NC(=O)c1ccc(OC)c(OC)c1)C(C)C` [Compound 124, Methyl (3,4-dimethoxybenzoyl)-L-valinate]?
EC50: > 50 µM; MSG Enh. Ratio (compound at 50 μM): 1.8 @

For `COC(=O)[C@H](C)NC(=O)/C=C/c1ccc(OC)cc1` [Compound 142, Methyl (E)-(3-(4-methoxyphenyl)acryloyl)-L-alaninate], which EC50 is on record?
The EC50 was over 50 µM.

What about the “MSG Enh. Ratio” value (compound at 50 μM) of the same compound?
The value was 3.3 @.

For `CCOC(=O)[C@@H](NC(=O)/C=C/c1ccccc1)[C@@H](C)CC` [Compound 137, Ethyl cinnamoyl-L-isoleucinate], which “MSG Enh. Ratio” value (compound at 50 μM) is on record?
The value was 4.3 @.

Which EC50 does the source give for `CCOC(=O)[C@@H](CC(C)C)NC(=O)/C=C/c1ccc(OC)cc1` [Compound 150, Ethyl (E)-(3-(4-methoxyphenyl)acryloyl)-D-leucinate] here?
Its EC50 is 1 µM.

How did the EC50 turn out when `CCOC(=O)CC[C@H](NC(=O)/C=C/c1ccc(OCC)cc1)C(=O)OCC` [Compound 156, Diethyl (E)-(3-(4-ethoxyphenyl)acryloyl)-L-glutamate] was run?
The EC50 was 4 µM.
